Source: the NIST ThermoML archive (doi:10.1021/je049711t)
Numbers after ± are expanded uncertainties.

Assay: refractive index (Na D-line) (dimensionless)
Settings: 293.15 K; 101.33 kPa; Liquid; Standard Abbe refractometry

Row | refractive index | SMILES
1 | 1.3772 ± 0.0008 | CC(=O)OC(C)C [1-methylethyl ethanoate]
2 | 1.4021 ± 0.0008 | CCCCCOC(C)=O [pentyl ethanoate]
3 | 1.3719 ± 0.0007 | CC(=O)O [acetic acid]
4 | 1.333 ± 0.0008 | O [water]
